Source: patent US7771713B2, “Chemical composition that attract arthropods” (priority 1999, dated 2010)

How the values were obtained:
Aedes aegypti = test: Olfactometer attraction test, treatment port vs control port, approximately 75 female mosquitoes; assay type: in vivo; details: for Response with L-LA (%): compound 500 μL together with L-lactic acid; for Δ [(Resp with LA) − Resp] (%): difference between response with L-lactic acid and response alone; for caught in CK (check or control port): compound alone 500 μL in treatment port; for Response with Ace (%): base compound together with acetone; for Δ [(Resp with Ace) − Resp] (%): difference between response with acetone and response alone
Experimental: The tests were conducted in an olfactometer (55 ft^3/min airflow, 80° F., 60% R.H.) as described by Posey, J. Med. Entomol., 35, 330-334 (1998); and LA is lactic acid. Mosquitoes were allowed to settle at least one hour prior to testing. The olfactometer was cleaned after each battery of tests. Each battery consisted of three tests, conducted at 08:30, 11:00 and 13:00 hours local time. Each of the three tests was conducted in a separate cage. The control consisted of identical sample delivery devices and conditions compared to that of the treatment side. Both the treatment and control ports were opened and closed simultaneously when inserting a new treatment/control.

Anopheles albimanus = test: Olfactometer attraction test of compounds and compositions; assay type: in vivo;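 also: olfactometer with a treatment port and a matching control port using identical delivery device and conditions, both opened together, three tests per battery, each run in its own cage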
[1] = compound alone, high dose of 500 μL
[2] = single compound, dose 500 (μL), 60 mL glass petri dish, Aedes aegypti attraction
[3] = no Base, Activator1 dose 500, 60 mL glass petri dish
[4] = base compound alone (mode of action similar to lactic acid)

SMILES	Response with L-LA (%) (Aedes aegypti)	Response (%) (Aedes aegypti; [1])	Δ [(Resp with LA) − Resp] (%) (Aedes aegypti)	% caught (Anopheles albimanus; single treatment, 500 μL) [%]	also measured
CCC(C)=O [2-butanone]	81	28	53	47.9	
CCCCCCCCC(C)=O [2-decanone]	24	14	10	4.0	
CCCCCC(C)=O [2-heptanone]	42	17	25	10.4	
CCCCC(C)=O [2-hexanone]	51	3	48	4.3	Response Avg % (Aedes aegypti; [2]): 3.0%
CCC(=O)C(C)C [2-methyl-3-pentanone]	9	1	8	5.3	Response Avg % (Aedes aegypti; [2]): 1.0%
Cc1ccco1 [2-methylfuran]	52	15	37	35.5	caught in CK (check or control port) (Aedes aegypti; mosquitoes in control port): 30%
CCCCCCCC(C)=O [2-nonanone]	12	8	4	27.0	
CCCCCCC(C)=O [2-octanone]	16	8	8	28.6	
CCCC(C)=O [2-pentanone]	76	8	64	10.8	
C=CC(C)=O [3-buten-2-one]	39	31	8	45.2	caught in CK (check or control port), with L-LA (Aedes aegypti; compound 500 μL with L-lactic acid in treatment port, mosquitoes in control port): 51%; caught in CK (check or control port) (Aedes aegypti; mosquitoes in control port): 61%; Response Avg % (Aedes aegypti; [3]): 31.0%
CCCCC(=O)CC [3-heptanone]	36	12	24	11.3	
CCCC(=O)CC [3-hexanone]	39	1	38	8.3	Response Avg % (Aedes aegypti; [2]): 1.0%
CC(=O)C(C)O (centres unmarked) [3-hydroxy-2-butanone]	35	11	24	1.3	Response (%) (Aedes aegypti; [4]): 9%; Response with Ace (%) (Aedes aegypti): 57%; Δ [(Resp with Ace) − Resp] (%) (Aedes aegypti): 48%
CC(=O)C(C)C [3-methyl-2-butanone]	82	8	74	24.4	
CCC(C)C(C)=O (centres unmarked) [3-methyl-2-pentanone]	9	8	1	17.1	
CCCCCCC(=O)CC [3-nonanone]	9	4	5	15.8	Response Avg % (Aedes aegypti; [2]): 4.0%
CCC(=O)CC [3-pentanone]	28	12	16	53.9	
CCCC(=O)CCC [4-heptanone]	32	12	20	8.0	
CC(=O)CC(C)C [4-methyl-2-pentanone]	64	0	64	1.3	Response Avg % (Aedes aegypti; [2]): 0.0%
CCCCC(=O)CCCC [5-nonanone]	47	14	33	12.7	

SMILES	Response with L-LA (%) (Aedes aegypti)	Response (%) (Aedes aegypti; [1])	Δ [(Resp with LA) − Resp] (%) (Aedes aegypti)	% caught (Anopheles albimanus; single treatment, 500 μL) [%]	also measured
CC(=O)CCC=C(C)C [6-methyl-5-hepten-2-one]	16	9	27	26.0	
CC(=O)C(=O)O [Pyruvic Acid]				1.4	Response Avg % (Aedes aegypti; Base alone, dose 50 uL): 30.7%
CC(=O)c1ccccc1 [acetophenone]	46	9	37	7.9	
O=Cc1ccccc1 [benzaldehyde]	21	9	12	35.5	
N#Cc1ccccc1 [benzonitrile]	48	4	42	3.8	Response Avg % (Aedes aegypti; [2]): 4.0%
CCCC=O [butyraldehyde]	7	6	1	1.3	Response (%) (Aedes aegypti; [4]): 6%; Response with Ace (%) (Aedes aegypti): 7%; Δ [(Resp with Ace) − Resp] (%) (Aedes aegypti): 1%
S=C=S [carbon disulfide]	89	82	7	56.0	
ClC(Cl)(Cl)Cl [carbon tetrachloride]	92	92	0	74.0	
ClC(Cl)Cl [chloroform]	76	24	52		% caught (Anopheles albimanus; in vivo): 78.7%
CCSSCC [diethyl disulfide]	49	33	16	2.8	
CCSCC [diethyl sulfide]	54	15	39	33.3	
CSSC [dimethyl disulfide]	86	36	50	97.3	
CSC [dimethyl sulfide]	79	32	47	68.4	
CSSSC [dimethyl trisulfide]	67	21	46	91.8	Response Avg % (Aedes aegypti; [3]): 21.0%
C=CSCC [ethyl vinyl sulfide]	55	18	37	25.4	Response Avg % (Aedes aegypti; [3]): 18.0%
C=CC(=C)C [isoprene]	23	12	11	0.0	Response (%) (Aedes aegypti; [4]): 12%; Response with Ace (%) (Aedes aegypti): 56%; Δ [(Resp with Ace) − Resp] (%) (Aedes aegypti): 44%
CCCSSC [methyl propyl disulfide]	40	19	21	12.3	
ClCCl [methylene chloride]	7090	87	−7	75.7	
Cc1ccc(O)cc1 [p-cresol]	32	5	27	29.5	Response Avg % (Aedes aegypti; [2]): 5.0%
